Converted amounts (≈) assume the structure as drawn.
Key:
E. coli K12 TOP10 = details: 3 log or greater reduction in bacterial growth over 16 hours
P. acnes, ATCC 6919 = assay: Broth microdilution assay for P. acnes MBC, Table 4B; format: cell-based, Propionibacterium acnes; details: 3 log or greater reduction in CFU/milliliter after 2.5 hours
From the text: The strain of P. acnes was purchased from ATCC (strain #6919) (Manassas, Va.). […] HeLa cells were purchased from ATCC (CCL2). Tryptic soy broth (TSB), Brucella broth, reinforced Clostridial broth and agar were purchased from Becton & Dickinson (distributed by VWR, West Chester, Pa.). All plastic consumables were purchased from VWR (West Chester, Pa.). Chemicals were purchased from Sigma Aldrich (St. Louis, Mo.). DMEM, antibiotics and cell culture supplements were purchased from Invitrogen (Carlsbad, Calif.), fetal calf serum (FCS) was purchased from Hyclone (Logan, Utah). […] For propagation in liquid culture individual colonies were inoculated in […] of TSB broth for 16 hours at 37° C. under constant shaking. P. acnes was grown on Brucella broth blood agar plates (supplemented with 5% defibrinated sheep blood, […] hemin and […] vitamin K) under anaerobic conditions (GasPak system, Becton & Dickinson) for 96 hours at 37° C. For propagation in liquid culture individual colonies were inoculated in […] of reinforced Clostridial broth under anaerobic conditions for 72 hours at 37° C. […] The minimum bactericidal concentration (MBC) of peptide compositions for P. acnes was determined in a microdilution assay. […] The appearance of bacterial colonies was evaluated and documented.

S. dublin (Lane) = assay: Broth microdilution assay for MIC, Table 4A; format: cell-based, Salmonella dublin; details: 3 log or greater reduction in bacterial growth over 16 hours
Method: S. dublin (Lane), S. aureus (Rosenbach), P. acnes, ATCC 6919, E. coli K12 TOP10, and E. coli K12 55099 (protease neg.) bacterial strains were tested in the microbial inhibition assays described hereafter. The S. dublin (Lane), and S. aureus (Rosenbach) strains are available from ATCC (Staphylococcus aureus subsp. aureus Rosenbach (Number: 13150) and Salmonella choleraesuis serotype dublin (Number: 39184)). The strain of P. acnes was purchased from ATCC (strain #6919) (Manassas, Va.). The E. coli K12 strains TOP 10 and 55099 were purchased from Invitrogen (Carlsbad, Calif.) and ATCC respectively. HeLa cells were purchased from ATCC (CCL2). Tryptic soy broth (TSB), Brucella broth, reinforced Clostridial broth and agar were purchased from Becton & Dickinson (distributed by VWR, West Chester, Pa.). All plastic consumables were purchased from VWR (West Chester, Pa.). […]
The minimum inhibitory concentration (MIC) of peptide compositions for S. aureus, S. dublin and E. coli was determined in a broth microdilution assay. […] The MIC for each peptide for each microorganism was determined by three methods. The growth of bacteria was directly determined by measuring the absorption at 600 nm using a Versamax microplate reader (Molecular Devices). […] After incubation for 16 hours at 37° C. bacterial growth was evaluated and documented (Alpha Innotech gel documentation system).

[1] = test system: indigenous bacteria in human sebum; assay: Human sebum assay, bactericidal activity; format: cell-based; details: 250 Micromolar peptide, 150 minutes at 37° C; none: 8500000
Method: Sebum was harvested from healthy human volunteers using Biore® deep cleansing pore strips. The seburn plugs were collected in a microtube with a tweezer. […] The seburn was resusupended in 1% TSB, 10 mM Na2HPO4 into fine particulate suspension. The assay was performed in a total volume of 50 microliters. […] The samples were incubated for 150 minutes at 37° C. To determine the number of viable bacteria, a serial dilution was prepared (10 fold dilutions to 1/100000). […] After incubation for 72 hours bacterial growth was documented (Alpha Innotech documentation system). The number of CFU/milliliter was determined by counting bacteria colonies. The efficacy of a peptide is indicated by the reduction of CFU/milliliter compared to the untreated control.

human red blood cells = format: cell-based; details: red cells of human, 100 Micromolar
Method: Hemoglobin-release assays with human red blood cells (RBC) were performed to determine the hemolytic activity of granulysin peptides. Human RBCs (San Diego Blood Bank, San Diego, Calif.) were washed three times in PBS buffer (8 mM Na2HPO4, 1.5 mM KH2PO4, 140 mM NaCl and 2.7 mM KCl, pH 7.4), resuspended in PBS to the concentration of 5% (v/v). The RBC were then exposed to different peptide compositions at various concentrations (100-6.25 micromolar) and incubated at 37° C. for 60 minutes in a total volume of 120 microliters. Every experiment included a negative control without peptide and maximum control treated with 5% TX-100 for complete hemoglobin release. Samples were centrifuged for 1 minute at 13,000 g to remove debris and intact cells. The hemoglobin-containing supernatant was removed and transferred to a microwell plate. Hemoglobin release was quantified at A540 using a Versamax plate reader (Molecular Devices). The degree of hemolysis is expressed as percentage of hemolysis compared to the […], using the following formula: % hemolysis=(sample−neg. control)/(max. control−neg. control)×100.

CSCC[C@@H](NC(=O)[C@@H](Cc1ccccc1)NC(=O)[C@@H](CC(N)=O)NC(=O)[C@@H](CCCNC(=N)N)NC(=O)[C@@H](CO)NC(=O)[C@@H](Cc1c[nH]c2ccccc12)NC(=O)[C@@H](CC(=O)O)NC(=O)[C@@H](CCCNC(=N)N)NC(=O)[C@@H](Cc1c[nH]c2ccccc12)NC(=O)[C@@H](CCCNC(=N)N)NC(=O)[C@@H](CO)NC(=O)[C@@H](CCCNC(=N)N)NC(=O)CNC(=O)[C@H](NC(=O)[C@@H](CCCNC(=N)N)NC(=O)[C@@H](CO)NC(=O)[C@H](NC(=O)[C@@H](CCCNC(=N)N)NC(=O)[C@H](NC(C)=O)[C@H](C)O)C(C)C)[C@H](C)O)C(=O)N[C@H](CCCNC(=N)N)C(=O)N[C@H](C)C(=O)N[C@H](C)C(N)=O [Peptide 30, Ac-trvsrtgrsrwrdwsrnfmraa-NH2]
Minimum inhibitory concentration (MIC) E. coli Top10 (E. coli K12 TOP10): 4 µM (≈ 11.2 µg/mL) | Minimum bactericidal concentration (MBC) for P. acnes (P. acnes, ATCC 6919): 8 micromolar units | Minimum inhibitory concentration (MIC) S. dublin (S. dublin (Lane)): 4 µM (≈ 11.2 µg/mL) | Bactericidal activity for indigenous bacteria in human sebum, cfu/ml [1]: 1000 cfu/ml | Hemolytic effect on human red blood cells (human red blood cells): 0%

Reference: patent publication US20050282755A1, “Compositions having antimicrobial activity and uses thereof” (priority 2004, published 2005)
